This note sets out measurements from patent publication US4396550A, “Dibenz [b,e] oxepin derivatives” (Kyowa Hakko Kogyo Co., Ltd., priority 1980, dated 1983).

The test system of one data set is male dd-strain rats. As to the kind of experiment: Acute toxicity test (minimum lethal dose). In kind it is in vivo. Particulars: mortality for 7 days. As for the experimental part: Groups of male dd-strain rats (each group consisting of five rats) weighing 20±1 g were used. The compounds of the present invention were administered orally (po: 0.3 mg/g) or intraperitoneally (ip: 0.1 mg/g). The MLD (minimum lethal dose) was calculated from the mortality for 7 days after the administration to obtain the results given in Table 1.

Data set [1] has as its system isolated ileum of guinea-pig. As to the kind of experiment: Test for anticholinergic effects on the isolated ileum of guinea-pig (acetylcholine contraction, in vitro). Set-up: species or system guinea-pig (male Hartly-strain). Conditions: Cavia porcellus, 0.05 h; depressing ratio of 80% or more of acetylcholine contraction; compound 3 minutes before; read-out: Anticholinergic activity: MED (minimum effective dose). On the procedure: (§1) Male Hartly-strain guinea-pigs weighing about 250 g are killed and the abdomen is opened. The part (2-3 cm in length) of the ileum 10 cm away from the caecum to the pylorus is cut off as a preparation. The preparation is suspended with serre-fine in a Magnus bath containing 10 ml of Tyrode's solution at 32±1° C. under an air bubble. The contraction of the ileum is recorded on Kymograph through hebel when 0.1 ml of acetylcholine at a concentration of 10^-3 g/ml is added to the Tyrode's solution.
(§2) On the other hand, 3 minutes after administration of the test compounds, the same procedure as mentioned above is carried out to record the contraction.

Data set [2] concerns isolated ileum of guinea-pig. As to the kind of experiment: Test for antihistaminergic effects on the isolated ileum of guinea-pig (histamine contraction, in vitro). More on the design: species or system guinea-pig (male Hartly-strain). Conditions: Cavia porcellus, 0.05 h; depressing ratio of 80% or more of histamine contraction; read-out: Antihistaminergic activity: MED. As for the experimental part:
as §1, §2
In this test, 0.1 ml of histamine at a concentration of 5×10^-3 g/l is used.

Data set [3] has as its system blood platelets (platelet-rich plasma). The experiment in a line: Test for the inhibition of platelet aggregation (collagen-induced, platelet-rich plasma). Particulars: Oryctolagus cuniculus, Platelet, 0.05 h; depressing ratio of 50% of collagen-induced aggregation; compound 3 minutes before; read-out: Antiplatelet aggregation activity: MED. It counts as cell-based, male white rabbits. On the procedure:
In this test, 9 vols. of blood are sampled from the caroted artery of male white rabbits weighing 2 to 2.5 kg and placed in a silicon-coated flask containing 1 vol. of 3.8% sodium citrate. The thus obtained blood is centrifuged at 1,000 rpm for 15 minutes to obtain platelet-rich plasma. The aggregation of the blood platelets is observed using an aggregometer, when collagen is added to the platelet-rich plasma to the extent of the final concentration that 50% of platelet aggregation is caused in the presence of 100 γ/ml of aspirin. On the other hand, 3 minutes after administration of the test compounds to the platelet-rich plasma, the same procedure as mentioned above is carried out to observe the aggregation of blood platelet. The test compounds showing a depressing ratio of 50%, compared with the inhibition of aggregation by collagen alone, are concluded to have antiplatelet aggregation activity.

Another data set can be described thus: Antiasthmatic activity. In kind it is in vivo. Particulars: po; read-out: Antiasthmatic activity: MED.

On to `CCN(CC)CCCNC1c2ccccc2COc2ccc(C)cc21` (centres unmarked) [Compound 4, 2-methyl-11-{3-(diethylamino)propyl}amino-6,11-dihydrodibenz[b,e]oxepin], for which the figures for the “Acute toxicity: MLD (minimum lethal dose)” value (from here on “Acute toxicity: MLD”) in the data set on male dd-strain rats (ip) and in the data set on male dd-strain rats (po) were 100 mg/kg and 300 mg/kg, respectively. Also, the minimal effective concentration came out at 10 µg/mL in data set [1], 10 µg/mL in data set [2] and 20 µg/mL in data set [3].
Consider `CCN(CC)CCCNC1c2ccccc2COc2ccc(Cl)cc21` (centres unmarked) [Compound 5, 2-chloro-11-{3-(diethylamino)propyl}amino-6,11-dihydrodibenz[b,e]oxepin], for which the figures for the “Acute toxicity: MLD” value with male dd-strain rats (ip) and with male dd-strain rats (po) were > 100 mg/kg and 300 mg/kg, respectively. Also, the minimal effective concentration in data set [1] was found to be 1 µg/mL; in data set [2], 1 µg/mL; in data set [3] it was 20 µg/mL.
Take `CCN(CC)CCCNC1c2ccccc2COc2c(C)cccc21` (centres unmarked) [Compound 6, 4-methyl-11-{3-(diethylamino)propyl}amino-6,11-dihydrodibenz[b,e]oxepin]: the “Acute toxicity: MLD” value in the data set on male dd-strain rats (ip) turned out to be 100 mg/kg; in the data set with male dd-strain rats (po), 300 mg/kg. Also, the minimal effective concentration in data set [1] came out at 3 µg/mL; in data set [2] it was 10 µg/mL; in data set [3], 20 µg/mL.
Consider `CCN(CC)CCNC1c2ccccc2COc2ccc(Cl)cc21` (centres unmarked) [Compound 10, 2-chloro-11-{2-(diethylamino)ethyl}amino-6,11-dihydrodibenz[b,e]oxepin], for which the “Acute toxicity: MLD” value is > 100 mg/kg with male dd-strain rats (ip) and > 300 mg/kg with male dd-strain rats (po). In addition, in data set [3], the minimal effective concentration was determined as 2 µg/mL. Also, the minimal effective dose in the data set “Antiasthmatic activity” came to 100 mg/kg.
As for `CCc1ccc2c(c1)C(NCCCN(C)C)c1ccccc1CO2` (centres unmarked) [Compound 15, 2-ethyl-11-{3-(dimethylamino)propyl}amino-6,11-dihydrodibenz[b,e]oxepin], the “Acute toxicity: MLD” value is recorded as > 100 mg/kg in the data set on male dd-strain rats (ip) and > 300 mg/kg with male dd-strain rats (po). The minimal effective concentration in data set [1] came to 3 µg/mL; in data set [2], 3 µg/mL; in data set [3], 20 µg/mL.
For `Cc1ccc2c(c1)C(NCCN1CCNCC1)c1ccccc1CO2` (centres unmarked) [Compound 25, 2-methyl-11-{2-(1-piperazinyl)ethyl}amino-6,11-dihydrodibenz[b,e]oxepin], the “Acute toxicity: MLD” value with male dd-strain rats (ip) is on record as > 100 mg/kg; in the data set with male dd-strain rats (po), > 300 mg/kg. The values for the minimal effective concentration in data set [1], in data set [2] and in data set [3] were 10 µg/mL, 10 µg/mL and 20 µg/mL, respectively.
In the case of `CCc1ccc2c(c1)C(NCCN1CCNCC1)c1ccccc1CO2` (centres unmarked) [Compound 26, 2-ethyl-11-{2-(1-piperazinyl)ethyl}amino-6,11-dihydrodibenz[b,e]oxepin], the entries for the “Acute toxicity: MLD” value in the data set with male dd-strain rats (ip) and with male dd-strain rats (po) were > 100 mg/kg and > 300 mg/kg, respectively. The minimal effective concentration turned out to be 3 µg/mL in data set [1], 3 µg/mL in data set [2] and 5 µg/mL in data set [3].
Consider `CCN1CCCC(NC2c3ccccc3COc3ccc(C)cc32)C1` (centres unmarked) [Compound 27, 2-methyl-11-(1-ethyl-3-piperidyl)amino-6,11-dihydrodibenz[b,e]oxepin], for which the results for the “Acute toxicity: MLD” value with male dd-strain rats (ip) and in the data set on male dd-strain rats (po) were > 100 mg/kg and 300 mg/kg, respectively. Also, the minimal effective concentration is 1 µg/mL in data set [1], 10 µg/mL in data set [2] and 100 µg/mL in data set [3].
On the same counts, the results for `Cc1ccc2c(c1)C(NCCc1ccccn1)c1ccccc1CO2` (centres unmarked) [Compound 36, 2-methyl-11-{2-(2-pyridyl)ethyl}amino-6,11-dihydrodibenz[b,e]oxepin] are 100 mg/kg, 200 mg/kg, 10 µg/mL, 3 µg/mL and 100 µg/mL.
For `Cc1ccc2c(c1)C(N1CCN(CCO)CC1)c1ccccc1CO2` (centres unmarked) [Compound 37, 2-methyl-11-{4-(2-hydroxyethyl)-1-piperazinyl}-6,11-dihydrodibenz[b,e]oxepin], the “Acute toxicity: MLD” value is > 100 mg/kg in the data set on male dd-strain rats (ip) and > 300 mg/kg in the data set with male dd-strain rats (po). Further, the minimal effective concentration in data set [1] turned out to be 10 µg/mL; in data set [2], 10 µg/mL; in data set [3] it was 50 µg/mL.
Regarding `CCc1ccc2c(c1)C(N1CCN(CCN)CC1)c1ccccc1CO2` (centres unmarked) [Compound 45, 2-ethyl-11-{4-(2-aminoethyl)-1-piperazinyl}-6,11-dihydrodibenz[b,e]oxepin], the figures for the “Acute toxicity: MLD” value in the data set on male dd-strain rats (ip) and with male dd-strain rats (po) were 100 mg/kg and > 300 mg/kg, respectively. In addition, the figures for the minimal effective concentration in data set [1], in data set [2] and in data set [3] were 10 µg/mL, 10 µg/mL and 100 µg/mL, respectively.
`CN1CCN(C2c3ccccc3COc3c(-c4ccccc4)cccc32)CC1` (centres unmarked) [Compound 47, 4-phenyl-11-(4-methyl-1-piperazinyl)-6,11-dihydrodibenz[b,e]oxepin]: the “Acute toxicity: MLD” value is on record as 100 mg/kg with male dd-strain rats (ip) and 200 mg/kg with male dd-strain rats (po). Besides, the minimal effective concentration in data set [1] is 3 µg/mL; in data set [2], 10 µg/mL; in data set [3], 10 µg/mL.
In the case of `CCN(CC)CCNC1c2ccccc2COc2ccc(C3CCCCC3)cc21` (centres unmarked) [Compound 48, 2-cyclohexyl-11-{2-(diethylamino)ethyl}amino-6,11-dihydrodibenz[b,e]oxepin], the “Acute toxicity: MLD” value in the data set on male dd-strain rats (ip) is 100 mg/kg; in the data set with male dd-strain rats (po), > 300 mg/kg. The minimal effective concentration in data set [1] came out at 3 µg/mL; in data set [2], 3 µg/mL; in data set [3], 100 µg/mL.
Regarding `CN(C)CCCNC1c2ccccc2COc2ccc(F)cc21` (centres unmarked) [Compound 49, 2-fluoro-11-{3-(dimethylamino)propyl}amino-6,11-dihydrodibenz[b,e]oxepin], the “Acute toxicity: MLD” value in the data set with male dd-strain rats (ip) is recorded as > 100 mg/kg; in the data set with male dd-strain rats (po), > 300 mg/kg. Further, the results for the minimal effective concentration in data set [1], in data set [2] and in data set [3] were 3 µg/mL, 1 µg/mL and 50 µg/mL, respectively.
Regarding `CN(C)CCCNC1c2ccccc2COc2ccc(Cl)cc21` (centres unmarked) [Compound 50, 2-chloro-11-{3-(dimethylamino)propyl}amino-6,11-dihydrodibenz[b,e]oxepin], the “Acute toxicity: MLD” value in the data set with male dd-strain rats (ip) is reported as > 100 mg/kg; with male dd-strain rats (po), 200 mg/kg. Also, the minimal effective concentration in data set [1] came out at 10 µg/mL; in data set [2], 3 µg/mL; in data set [3], 50 µg/mL.
On the same counts, the results for `c1ccc(-c2ccc3c(c2)C(NC2CN4CCC2CC4)c2ccccc2CO3)cc1` (centres unmarked) [Compound 55, 2-phenyl-11-(3-quinuclidinyl)amino-6,11-dihydrodibenz[b,e]oxepin] are > 100 mg/kg, > 300 mg/kg, 3 µg/mL, 1 µg/mL and 20 µg/mL.
On the same counts, the results for `c1ccc(-c2cccc3c2OCc2ccccc2C3NC2CN3CCC2CC3)cc1` (centres unmarked) [Compound 57, 4-phenyl-11-(3-quinuclidinyl)amino-6,11-dihydrodibenz[b,e]oxepin] are 100 mg/kg, > 300 mg/kg, 3 µg/mL, 3 µg/mL and 10 µg/mL.
Taken in the same sequence, the figures for `CCc1ccc2c(c1)C(NC1CC(C)(C)NC(C)(C)C1)c1ccccc1CO2` (centres unmarked) [Compound 63, 2-ethyl-11-{4-(2,2,6,6-tetramethyl)piperidinyl}amino-6,11-dihydrodibenz[b,e]oxepin] were 100 mg/kg, 200 mg/kg, 3 µg/mL, 3 µg/mL and 10 µg/mL.
